The values that follow come from patent publication US20030143729A1 (Synaptic Pharmaceutical Corporation, priority 1992, published 2003).

Usually inhibition stands for the percentage by which the read-out fell short of the control. One may read the IC50 as the concentration that gives 50% inhibition.

Experiment [1] has as its target T1, GAT-1 (Rattus norvegicus, UniProt P23978).
T1 construct: expressed in transfected cells; host or cells: COS-7 cells, transient (DEAE-dextran)
The experiment in a line: [3H]GABA uptake by COS-7 cells transfected with GAT-1 (rB46a). Format: cell-based.

Experiment [2] has as its target T2, taurine transporter (rB16a) (Rattus norvegicus, UniProt P31643).
T2 sequence (P31643 1-621): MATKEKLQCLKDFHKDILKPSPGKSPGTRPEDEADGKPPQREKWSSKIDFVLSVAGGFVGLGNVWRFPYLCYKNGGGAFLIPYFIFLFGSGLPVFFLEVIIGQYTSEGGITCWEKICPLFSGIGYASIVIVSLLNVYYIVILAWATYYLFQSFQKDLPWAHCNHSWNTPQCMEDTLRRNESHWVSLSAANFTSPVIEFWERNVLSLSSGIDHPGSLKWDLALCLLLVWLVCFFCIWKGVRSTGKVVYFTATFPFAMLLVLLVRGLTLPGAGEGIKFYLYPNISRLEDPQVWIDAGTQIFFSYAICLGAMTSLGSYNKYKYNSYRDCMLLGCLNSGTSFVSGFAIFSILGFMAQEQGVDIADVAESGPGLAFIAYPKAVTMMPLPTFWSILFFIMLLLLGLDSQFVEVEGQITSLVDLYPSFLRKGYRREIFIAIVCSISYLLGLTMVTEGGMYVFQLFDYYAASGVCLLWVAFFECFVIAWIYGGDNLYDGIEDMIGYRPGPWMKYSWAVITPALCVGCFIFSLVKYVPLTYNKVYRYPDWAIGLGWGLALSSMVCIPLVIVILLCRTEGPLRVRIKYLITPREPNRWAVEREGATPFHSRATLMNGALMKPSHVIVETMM
The experiment in a line: [3H]taurine uptake by COS-7 cells transfected with rB16a. As to conditions: for inhibition at 10 µM: COS-7, read-out: % Inhibition of [3H]taurine uptake, rB16a, inhibitor 10 μM; for inhibition at 10 µM / inhibition at 100 µM / inhibition at 1000 µM / % Inhibition of [3H]taurine uptake, rB16a: 50 nM [3H]taurine, 10 minutes, 37° C.; for inhibition at 100 µM: COS-7, read-out: % Inhibition of [3H]taurine uptake, rB16a, inhibitor 100 μM; for inhibition at 1000 µM: COS-7, read-out: % Inhibition of [3H]taurine uptake, rB16a, inhibitor 1 mM.
Method: Transient transfections of COS cells with the plasmid pEVJB-rB16a were carried out using DEAE-dextran with DMSO according to the method of Lopata et al. (58) with minor modifications. COS cells were grown (37° C., 5%CO2) in high glucose Dulbecco's modified Eagle medium supplemented with 10% bovine calf serum, 100 U/ml penicillin G, and 100 μg/ml streptomycin sulfate. Cells were routinely used two days after transfection for transport studies.
Plates were incubated at 37° C. for 10 minutes unless indicated otherwise, then washed rapidly 3× with ice cold HBS. Cells were solubilized with 0.05% sodium deoxycholate/0.1N NaOH), an aliquot was neutralized with 1N HCl, and radioactivity was determined by scintillation counting. Protein was quantified in an aliquot of the solubilized cells using a BIO-RAD protein assay kit, according to the manufacturer's directions.

Experiment [3] addresses T3, human GAT-3 (Homo sapiens, UniProt P48066).
T3 sequence (P48066 1-632): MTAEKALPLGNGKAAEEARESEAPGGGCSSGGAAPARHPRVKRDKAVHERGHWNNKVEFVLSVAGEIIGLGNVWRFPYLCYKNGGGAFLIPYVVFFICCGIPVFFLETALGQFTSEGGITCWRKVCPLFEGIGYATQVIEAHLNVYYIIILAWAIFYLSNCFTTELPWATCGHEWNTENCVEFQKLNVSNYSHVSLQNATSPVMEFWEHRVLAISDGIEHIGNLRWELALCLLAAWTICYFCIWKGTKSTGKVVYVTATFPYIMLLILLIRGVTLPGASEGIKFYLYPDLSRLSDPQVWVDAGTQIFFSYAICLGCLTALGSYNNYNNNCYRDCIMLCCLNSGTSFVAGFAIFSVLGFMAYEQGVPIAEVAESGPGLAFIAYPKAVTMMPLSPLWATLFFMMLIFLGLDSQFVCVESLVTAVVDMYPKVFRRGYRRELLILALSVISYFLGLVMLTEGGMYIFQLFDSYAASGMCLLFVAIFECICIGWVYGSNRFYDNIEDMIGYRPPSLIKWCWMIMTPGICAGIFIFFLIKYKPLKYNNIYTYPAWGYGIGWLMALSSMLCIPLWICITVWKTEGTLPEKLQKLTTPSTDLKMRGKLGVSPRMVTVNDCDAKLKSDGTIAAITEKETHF
The settings on record: 50 nM [3H]GABA.
Method: (§1) Cells were grown under standard conditions (37° C., 5% CO2) in Dulbecco's modified Eagles's medium (GIBCO, Grand Island, N.Y.).
(§2) Cells grown in 24-well plates were washed 3× with HEPES-buffered saline (HBS, in mM: NaCl, 150; HEPES, 20; CaCl2, 1; glucose, 10; KCl, 5; MgCl2, 1; pH 7.4) and allowed to equilibrate on a 37° C. slide warmer. After 10 minutes the medium was removed and unlabeled drugs in HBS were added (450 μl/well). […] Plates were incubated at 37° C. for 10 minutes, then washed rapidly 3× with ice-cold HBS, using a 24-position plate washer (Brandel, Gaithersburg, Mass.; model PW-12). Cells were solubilized with 0.05% sodium deoxycholate/0.1N NaOH (0.25 ml/well), an aliquot neutralized with 1N HCl, and radioactivity was determined by scintillation counting. Protein was quantified in an aliquot of the solubilized cells using a BIO-RAD protein assay kit, according to the manufacturer's directions.
(§3) Lipophilic inhibitors were dissolved in DMSO.
(§4) Data Analysis: Competition curves were conducted in duplicate, using 10 concentrations of unlabeled drug.

Experiment [4] concerns endogenous taurine transporter in COS cells. The experiment in a line: [3H]taurine uptake by non-transfected COS-7 cells (control). Format: cell-based. As to conditions: 50 nM [3H]taurine, 10 minutes, 37° C.
Experiment [5] addresses rat GAT-1 (Rattus norvegicus, UniProt P23978). The settings on record: for IC50: read-out: IC50 for inhibition of [3H]GABA uptake, rGAT-1 (Table 8).
Method: as §2, §3, §4
COS cells grown in 75 cm^2 or 150 cm^2 flasks in DMEM with 10% bovine calf serum, 100 U/ml penicillin G, and 100 μg/ml streptomycin sulfate (37° C., 5% CO2) were transfected using DEAE-dextran. On the day following transfection the cells were split into 24-well assay plates coated with poly-D-lysine (10 μg/ml), and transport was measured 24 hours later.
After 10 minutes the medium was removed and unlabeled drugs in HBS were added (450 μl/well). […] Plates were incubated at 37° C. for 10 minutes, then washed rapidly 3× with ice-cold HBS, using a 24-position plate washer (Brandel, Gaithersburg, Mass.; model PW-12). Cells were solubilized with 0.05% sodium deoxycholate/0.1N NaOH (0.25 ml/well), an aliquot neutralized with 1N HCl, and radioactivity was determined by scintillation counting. Protein was quantified in an aliquot of the solubilized cells using a BIO-RAD protein assay kit, according to the manufacturer's directions.
The target of experiment [6] is T4, human GAT-1 (Homo sapiens, UniProt P30531). The settings on record: read-out: IC50 for inhibition of [3H]GABA uptake, human GAT-1.
Method: as §1, §2, §3, §4
The target of experiment [7] is T5, hBGT-1 (Homo sapiens, UniProt P48065).
T5 sequence (P48065 1-614): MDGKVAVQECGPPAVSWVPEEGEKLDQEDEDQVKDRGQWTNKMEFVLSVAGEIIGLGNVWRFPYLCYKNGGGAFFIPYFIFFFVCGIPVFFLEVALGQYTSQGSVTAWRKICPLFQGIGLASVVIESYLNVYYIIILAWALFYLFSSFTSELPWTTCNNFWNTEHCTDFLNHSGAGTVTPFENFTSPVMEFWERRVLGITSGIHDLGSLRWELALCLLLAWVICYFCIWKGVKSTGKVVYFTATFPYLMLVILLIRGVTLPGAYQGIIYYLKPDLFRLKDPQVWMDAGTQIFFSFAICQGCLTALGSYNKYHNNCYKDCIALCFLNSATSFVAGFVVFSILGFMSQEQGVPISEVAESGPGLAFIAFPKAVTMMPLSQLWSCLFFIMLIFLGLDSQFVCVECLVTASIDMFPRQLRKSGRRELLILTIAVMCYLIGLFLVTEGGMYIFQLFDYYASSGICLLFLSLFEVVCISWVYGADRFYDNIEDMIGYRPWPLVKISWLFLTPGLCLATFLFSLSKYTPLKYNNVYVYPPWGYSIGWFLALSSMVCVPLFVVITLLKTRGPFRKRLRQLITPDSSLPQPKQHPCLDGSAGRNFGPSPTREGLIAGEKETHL
The settings on record: read-out: IC50 for inhibition of [3H]GABA uptake, human BGT-1; stable cell line; 50 nM [3H]GABA.
Method: as §1, §2, §3, §4

For experiment [8], the system named is animals. The settings on record: in vivo; cited from earlier work.
Experiment [9] addresses T5, hBGT-1. The experiment in a line: cell-based.
Method: as §1, §2, §3, §4
In experiment [10] the target is T4, human GAT-1. Kind of experiment: cell-based.
Method: as §1, §2, §3, §4
The mark [11] stands for this setting: COS-7, read-out: % Inhibition of [3H]GABA uptake, GAT-1.
[12] abbreviates: IC50 for inhibition of [3H]GABA uptake, human GAT-3, stable cell line.

Values joined by “and” are separate entries in the source; they are usually repeats but may differ in a detail not shown here. Equal values may be shown once. Read-outs that look alike come from different tables or passages of the source.

T4 sequence (P30531 whole entry): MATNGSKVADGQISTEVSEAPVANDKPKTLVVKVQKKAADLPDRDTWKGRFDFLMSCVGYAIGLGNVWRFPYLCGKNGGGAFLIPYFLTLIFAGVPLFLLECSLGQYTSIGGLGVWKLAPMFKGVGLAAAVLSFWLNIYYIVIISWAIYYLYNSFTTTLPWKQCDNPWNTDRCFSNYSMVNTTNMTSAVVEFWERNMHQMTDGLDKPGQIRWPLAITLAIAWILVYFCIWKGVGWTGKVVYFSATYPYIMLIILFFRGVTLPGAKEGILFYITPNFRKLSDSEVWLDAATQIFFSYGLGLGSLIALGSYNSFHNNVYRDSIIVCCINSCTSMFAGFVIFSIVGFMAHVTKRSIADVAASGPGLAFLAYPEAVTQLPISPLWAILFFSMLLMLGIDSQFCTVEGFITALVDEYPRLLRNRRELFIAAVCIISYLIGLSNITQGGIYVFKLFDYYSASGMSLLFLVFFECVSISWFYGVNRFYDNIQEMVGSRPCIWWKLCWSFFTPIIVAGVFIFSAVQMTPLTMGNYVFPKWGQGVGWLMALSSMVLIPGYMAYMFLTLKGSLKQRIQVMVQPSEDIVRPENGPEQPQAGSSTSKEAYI

Regarding `N[C@@H]1CCC[C@H](C(=O)O)C1` (relative stereo) [ACHC, cis-3-aminocyclohexanecarboxylic acid], in experiment [1] (setting [11]), the inhibition at 100 µM turned out to be 49 ± 10%.
As to `NCCCC(=O)O` [GABA, gamma-aminobutyric acid], in [2], the inhibition at 10 µM amounted to 9 ± 6%, the inhibition at 100 µM was around 10% and the inhibition at 1000 µM is around 40%. The “affinity of the taurine transporter for GABA” value in experiment [2] (from Table 15) was around 1 mM. Moreover, the “% Inhibition of [3H]taurine uptake, rB16a” value (from here on “% Inhibition … rB16a”) in [2] (inhibitor 1 mM) is on record as 44 ± 6 (8) %. Moreover, in experiment [3] (setting [12]), the half-maximal inhibitory concentration (IC50) was ~5 µM and ~7 µM.
As to `N=C(N)NCCS(=O)(=O)O` [GES, guanidinoethanesulfonic acid], the “% Inhibition of [3H]taurine uptake, control” value (“% Inhibition … control” for short) in experiment [4] (inhibitor 10 μM) is 6 ± 3 (4) %; in experiment [4] (inhibitor 100 μM), 47 ± 3 (5) %; in experiment [4] (inhibitor 1 mM) it was 89 ± 1 (5) %. Also, the IC50 in experiment [5] (full competition curves, 50 nM [3H]GABA) was found to be 4840 µM. The “% Inhibition … rB16a” value in experiment [2] (inhibitor 10 μM) was 11%; in [2] (inhibitor 100 μM), 45%; in [2] (inhibitor 1 mM), 92%.
As to `NCC[C@H](N)C(=O)O` [L-DABA, L-(2,4)diaminobutyric acid], the inhibition at 100 µM in [1] (setting [11]) amounted to 49 ± 8%.
Regarding `O=C(O)C1=CCCN(CCON=C(c2ccccc2)c2ccccc2)C1` [NNC-711], the IC50 in experiment [6] stood at 0.04 ± 0.01 µM; in experiment [5], 0.38 µM; in [7] it was 622 ± 265 µM; in [3] (read-out: IC50 for inhibition of [3H]GABA uptake, human GAT-3, stable cell line) it was 1700 ± 252 µM. The “selectivity for GAT-1” value in [5] is given as 1,000 fold. The “anticonvulsive activity in animals” value in experiment [8] is given as “anticonvulsive activity”.
As to `O=C(O)C1=CCCNC1` [guvacine], in experiment [1] (setting [11]), the inhibition at 10 µM is 41 ± 3%. In experiment [9], this compound returned an IC50 above 1000 µM.
Regarding `NCCS(=O)O` [hypotaurine], the “% Inhibition … control” value is given as 41 ± 3 (7) % in experiment [4] (inhibitor 10 μM), 91 ± 1 (4) % in experiment [4] (inhibitor 100 μM) and 99 ± 1 (4) % in [4] (inhibitor 1 mM). For the same compound, the inhibition at 10 µM in [2] was in the range of 30 to 40%. Moreover, in [2], the inhibition at 100 µM is around 90%. Besides, the inhibition at 1000 µM in experiment [2] was around 100%. The “% Inhibition … rB16a” value in [2] (inhibitor 10 μM) is 26 ± 7 (7) %; in [2] (inhibitor 100 μM), 84 ± 3 (4) %.
With `NCCS(=O)(=O)O` [taurine, 2-aminoethanesulfonic acid], the “% Inhibition … control” value is given as 38 ± 5 (7) % in experiment [4] (inhibitor 10 μM), 89 ± 2 (4) % in experiment [4] (inhibitor 100 μM) and 100° % in [4] (inhibitor 1 mM). In experiment [2], the inhibition at 10 µM fell in the range of 30 to 40%. The inhibition at 100 µM in [2] was around 90%. Also, the inhibition at 1000 µM in experiment [2] was around 100%. Moreover, the “% Inhibition … rB16a” value in experiment [2] (inhibitor 10 μM) is 29 ± 8 (5) %; in experiment [2] (inhibitor 100 μM), 83 ± 2 (5) %; in experiment [2] (inhibitor 1 mM), 100° %. Besides, the “VMAX of taurine transport, COS/rB16a” value in experiment [2] (various concentrations of [3H]taurine, 30 seconds) was determined as 0.96±0.27 nmoles/mg protein.
For `NCCC(=O)O` [β-alanine], the inhibition at 100 µM in experiment [1] (setting [11]) stood at 11 ± 1%; in [2], 51%. The “% Inhibition … control” value in experiment [4] (inhibitor 10 μM) is listed as 9 ± 2 (6) %; in [4] (inhibitor 100 μM) it was 63 ± 3 (6) %; in [4] (inhibitor 1 mM), 97 ± 1 (4) %. The half-inhibitory concentration (IC50) in [10] is 5690 ± 1890 µM; in [9] (IC50 at hBGT-1), above 1000 µM; in [9] (IC50 for inhibition of [3H]GABA uptake, human BGT-1, stable cell line, 50 nM [3H]GABA), 1320 ± 224 µM; in experiment [3] (setting [12]), ~58 µM and 58 µM. Besides, the inhibition at 10 µM in experiment [2] worked out at 15%. The inhibition at 1000 µM in [2] worked out at 96%.
With hydroxynipecotic acid [OH-nipecotic], the “% Inhibition of [3H]GABA uptake, GAT-1” value in experiment [1] (inhibitor 10 μM, 50 nM [3H]GABA, 10 minutes, 37° C.) is 34 ± 5 (3) %. In addition, the IC50 in experiment [5] amounted to 44 ± 8 µM.
